Measured values from patent US9902725B2, “Heterocyclic derivatives as RORgamma modulators” (GENFIT, priority 2014, dated 2018).
pIC50: −log10 of the molar value.

How the values were obtained:
[1] = biological target: T1, RORγt ligand-binding domain (RORγt-LBD) (Homo sapiens, UniProt P51449); test: Time-resolved FRET (TR-FRET) RORγt coactivator assay; assay type: biochemical; conditions: GST-RORγ-LBD, biotinylated RIP140 peptide, coactivator displacement
T1 construct: 20 nM recombinantly expressed RORγ-LBD fused to GST
T1 sequence (P51449 269-508 limits assumed): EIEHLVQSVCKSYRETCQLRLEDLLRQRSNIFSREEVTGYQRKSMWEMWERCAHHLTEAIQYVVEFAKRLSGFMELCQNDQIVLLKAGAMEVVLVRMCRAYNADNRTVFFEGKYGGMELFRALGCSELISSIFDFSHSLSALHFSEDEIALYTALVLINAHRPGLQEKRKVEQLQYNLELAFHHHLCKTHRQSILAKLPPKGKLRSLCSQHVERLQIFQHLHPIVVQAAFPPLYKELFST

[2] = biological target: T2, human RORγt (Homo sapiens, UniProt P51449); test: IL-17 secretion from EL4 murine lymphoma overexpressing human RORγt; assay type: cell-based; set-up: expressed in transfected cells; host or cells: EL-4 murine lymphoma; conditions: IL-17 secretion inhibition, PMA and ionomycin stimulation, 24 h
T2 sequence (P51449 1-497 isoform P51449-2): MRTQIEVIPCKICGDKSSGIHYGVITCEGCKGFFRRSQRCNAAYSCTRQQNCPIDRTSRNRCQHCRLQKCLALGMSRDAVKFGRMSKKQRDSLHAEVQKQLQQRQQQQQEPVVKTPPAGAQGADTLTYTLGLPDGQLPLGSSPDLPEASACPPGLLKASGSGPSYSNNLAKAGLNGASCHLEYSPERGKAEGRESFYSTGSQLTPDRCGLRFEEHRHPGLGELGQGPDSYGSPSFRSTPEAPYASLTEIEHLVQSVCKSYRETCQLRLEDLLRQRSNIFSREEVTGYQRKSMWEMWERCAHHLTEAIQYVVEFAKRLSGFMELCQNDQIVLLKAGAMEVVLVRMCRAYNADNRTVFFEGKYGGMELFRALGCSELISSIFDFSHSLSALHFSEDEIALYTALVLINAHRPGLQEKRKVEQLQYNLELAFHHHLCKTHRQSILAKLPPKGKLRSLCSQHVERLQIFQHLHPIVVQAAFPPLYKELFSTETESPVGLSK
Method: Murine EL-4 lymphoma cell line overexpressing human RORγt was used in this functional assay to assess compound ability to inhibit IL-17 cytokine secretion.
EL-4 cells are maintained in a standard culture medium RPMI supplemented with 10% fetal calf serum, 1% sodium pyruvate, 1% essential amino acids and 1% antibiotics at 37° C. in a humidified atmosphere of 5% CO2 and 95% air. Culture medium was changed every 2 days. EL4 cells were transfected with a plasmid encoding hRORγt (sequence identical to published sequence NM 001001523). […] Briefly, 1 μg of DNA/1 million cells was served to transfect EL-4 cells. Cell/DNA suspension was transferred into certified cuvette and the electroporation of RORγt plasmid was carried out using appropriate Nucleofector® program.
Cells were seeded in 96 well plates at a density of 150000 cells/well then treated with compounds of this invention at indicated concentrations and incubated for 24 hours at 37° C. in a humidified atmosphere of 5% CO2 and 95% air. EL-4 cells were pretreated with test compounds (RORγ modulators) and stimulated with PMA (10 ng/mL) and ionomycin (1 μM final concentration) in the presence of test compound concentrations for additional 24 h at 37° C. in a humidified atmosphere of 5% CO2 and 95% air. Subsequently, supernatants were collected (after centrifugation at 300 g for 10 minutes) to determine the concentrations of IL-17 by HTRF (CisBio, France) or ELISA (R&D Systems Europe) according to the manufacturer's protocols.

| Structure (SMILES) | pIC50 [1] | pIC50 [2] |
| --- | --- | --- |
| O=C(O)CCc1c[nH]c2ccc(CC(=O)NC(c3ccccc3)c3ccc(Cl)cc3N3CCCC3)cc12 (stereo not drawn) [compound 91, 3-{5-[({[4-chloro-2-(pyrrolidin-1-yl)phenyl](phenyl)methyl}carbamoyl)methyl]-1H-indol-3-yl}propanoic acid] | > 6.00 | 5.00 to 6.00 |
| CC(C)CC(NC(=O)Cc1ccc2[nH]cc(CCC(=O)O)c2c1)c1cccc2ccccc12 (stereo not drawn) [compound 105, 3-[5-({[3-methyl-1-(naphthalen-1-yl)butyl]carbamoyl}methyl)-1H-indol-3-yl]propanoic acid] | > 6.00 | 5.00 to 6.00 |
| COc1ccc(C(NC(=O)Cc2ccc3[nH]cc(CCC(=O)O)c3c2)c2ccccc2)c(N2CCCC2)c1 (stereo not drawn) [compound 109, 3-{5-[({[4-methoxy-2-(pyrrolidin-1-yl)phenyl](phenyl)methyl}carbamoyl)methyl]-1H-indol-3-yl}propanoic acid] | > 6.00 | 5.00 to 6.00 |
| Cc1ccc(C(NC(=O)Cc2ccc3[nH]cc(CC(=O)N(C)C)c3c2)c2ccccc2)c(N2CCOCC2)c1 (stereo not drawn) [compound 112, N,N-dimethyl-2-{5-[({[4-methyl-2-(morpholin-4-yl)phenyl](phenyl)methyl}carbamoyl)methyl]-1H-indol-3-yl}acetamide] | > 6.00 | 5.00 to 6.00 |
| Cc1ccc(N2CCCCC2)c(C(NC(=O)Cc2ccc3[nH]cc(CCC(=O)O)c3c2)c2ccccc2)c1 (stereo not drawn) [compound 114, 3-{5-[({[5-methyl-2-(piperidin-1-yl)phenyl](phenyl)methyl}carbamoyl)methyl]-1H-indol-3-yl}propanoic acid] | > 6.00 | 5.00 to 6.00 |
| CNC(=O)CCc1c[nH]c2ccc(CC(=O)NC(c3ccccc3)c3ccccc3N3CCCCC3)cc12 (stereo not drawn) [compound 115, N-methyl-3-{5-[({phenyl[2-(piperidin-1-yl)phenyl]methyl}carbamoyl)methyl]-1H-indol-3-yl}propanamide] | > 6.00 | 5.00 to 6.00 |
| O=C(O)CCc1c[nH]c2ccc(CC(=O)NC(c3ccccc3)c3cc(Br)ccc3N3CCCC3)cc12 (stereo not drawn) [compound 117, 3-{5-[({[5-bromo-2-(pyrrolidin-1-yl)phenyl](phenyl)methyl}carbamoyl)methyl]-1H-indol-3-yl}propanoic acid] | > 6.00 | 4.52 to 5.00 |
| CCNc1cc(C)ccc1C(NC(=O)Cc1ccc2[nH]cc(CCC(=O)O)c2c1)c1ccccc1 (stereo not drawn) [compound 120, 3-{5-[({[2-(ethylamino)-4-methylphenyl](phenyl)methyl}carbamoyl)methyl]-1H-indol-3-yl}propanoic acid] | > 6.00 | 5.00 to 6.00 |
| Cc1ccc(C(NC(=O)Cc2ccc3[nH]cc(CCC(=O)O)c3c2)c2ccccc2)c(NC(C)C)c1 (stereo not drawn) [compound 126, 3-(5-{[({4-methyl-2-[(propan-2-yl)amino]phenyl}(phenyl)methyl)carbamoyl]methyl}-1H-indol-3-yl)propanoic acid] | > 6.00 | 5.00 to 6.00 |
| COc1ccc(N2CCCCC2)c(C(NC(=O)Cc2ccc3[nH]cc(CCC(=O)O)c3c2)c2ccccc2)c1 (stereo not drawn) [compound 136, 3-{5-[({[5-methoxy-2-(piperidin-1-yl)phenyl](phenyl)methyl}carbamoyl)methyl]-1H-indol-3-yl}propanoic acid] | > 6.00 | 5.00 to 6.00 |
| Cc1ccc(C(NC(=O)Cc2ccc3[nH]cc(CCC(=O)O)c3c2)c2ccc(C)s2)c(N2CCCCC2)c1 (stereo not drawn) [compound 138, 3-{5-[({[4-methyl-2-(piperidin-1-yl)phenyl](5-methylthiophen-2-yl)methyl}carbamoyl)methyl]-1H-indol-3-yl}propanoic acid] | > 6.00 | 5.00 to 6.00 |
| Cc1ccc(C(NC(=O)Cc2ccc3[nH]cc(CCC(=O)O)c3c2)c2nccs2)c(N2CCCCC2)c1 (stereo not drawn) [compound 140, 3-{5-[({[4-methyl-2-(piperidin-1-yl)phenyl](1,3-thiazol-2-yl)methyl}carbamoyl)methyl]-1H-indol-3-yl}propanoic acid] | > 6.00 | 5.00 to 6.00 |
| COc1ccc(C(NC(=O)Cc2ccc3[nH]cc(CCC(=O)O)c3c2)c2ccccc2)c(N2CCCCCC2)c1 (stereo not drawn) [compound 142, 3-{5-[({[2-(azepan-1-yl)-4-methoxyphenyl](phenyl)methyl}carbamoyl)methyl]-1H-indol-3-yl}propanoic acid] | > 6.00 | 5.00 to 6.00 |
| O=C(O)CCc1c[nH]c2ccc(CC(=O)NC3(c4ccccc4N4CCCCC4)CCCCC3)cc12 [compound 144, 3-{5-[({1-[2-(piperidin-1-yl)phenyl]cyclohexyl}carbamoyl)methyl]-1H-indol-3-yl}propanoic acid] | > 6.00 | 5.00 to 6.00 |
| Cc1ccc(C(NC(=O)Cc2ccc3[nH]cc(CCC(=O)O)c3c2)c2ccccc2)c(OC(C)C)c1 (stereo not drawn) [compound 146, 3-{5-[({[4-methyl-2-(propan-2-yloxy)phenyl](phenyl)methyl}carbamoyl)methyl]-1H-indol-3-yl}propanoic acid] | > 6.00 | 5.00 to 6.00 |
| Cc1ccc(C(NC(=O)Cc2ccc3[nH]cc(CCC(=O)O)c3c2)c2ccccc2N2CCCCC2)o1 (stereo not drawn) [compound 148, 3-[5-({[(5-methylfuran-2-yl)[2-(piperidin-1-yl)phenyl]methyl]carbamoyl}methyl)-1H-indol-3-yl]propanoic acid] | > 6.00 | 5.00 to 6.00 |
| CCOc1ccc(C(NC(=O)Cc2ccc3[nH]cc(CCC(=O)O)c3c2)c2ccccc2)c(N2CCCCC2)c1 (stereo not drawn) [compound 150, 3-{5-[({[4-ethoxy-2-(piperidin-1-yl)phenyl](phenyl)methyl}carbamoyl)methyl]-1H-indol-3-yl}propanoic acid] | > 6.00 | 5.00 to 6.00 |
| CC(C)Oc1ccc(C(NC(=O)Cc2ccc3[nH]cc(CCC(=O)O)c3c2)c2ccccc2)c(N2CCCCC2)c1 (stereo not drawn) [compound 152, 3-{5-[({phenyl[2-(piperidin-1-yl)-4-(propan-2-yloxy)phenyl]methyl}carbamoyl)methyl]-1H-indol-3-yl}propanoic acid] | > 6.00 | 4.52 to 5.00 |
| Cc1cccc(C(NC(=O)Cc2ccc3[nH]cc(CCC(=O)O)c3c2)c2ccccc2N2CCCCC2)c1 (stereo not drawn) [compound 158, 3-[5-({[(3-methylphenyl)[2-(piperidin-1-yl)phenyl]methyl]carbamoyl}methyl)-1H-indol-3-yl]propanoic acid] | > 6.00 | 5.00 to 6.00 |
| Cc1ccc(C(NC(=O)Cc2ccc3[nH]nc(CCC(=O)O)c3c2)c2ccccc2)c(OC(C)C)c1 (stereo not drawn) [compound 160, 3-{5-[({[4-methyl-2-(propan-2-yloxy)phenyl](phenyl)methyl}carbamoyl)methyl]-1H-indazol-3-yl}propanoic acid] | > 6.00 | 4.52 to 5.00 |
| O=C(O)CCc1c[nH]c2ccc(CC(=O)NC(CC3CCCCC3)c3ccccc3N3CCCCC3)cc12 (stereo not drawn) [compound 162, 3-{5-[({2-cyclohexyl-1-[2-(piperidin-1-yl)phenyl]ethyl}carbamoyl)methyl]-1H-indol-3-yl}propanoic acid] | 5.00 to 6.00 | 5.00 to 6.00 |
| CCN(CC)c1ccccc1C(CC(C)C)NC(=O)Cc1ccc2[nH]cc(CCC(=O)O)c2c1 (stereo not drawn) [compound 174, 3-{5-[({1-[2-(diethylamino)phenyl]-3-methylbutyl}carbamoyl)methyl]-1H-indol-3-yl}propanoic acid] | 5.00 to 6.00 | 5.00 to 6.00 |
| CC(C)(C)CC(NC(=O)Cc1ccc2[nH]cc(CCC(=O)O)c2c1)c1ccccc1N1CCCCC1 (stereo not drawn) [compound 186, 3-{5-[({3,3-dimethyl-1-[2-(piperidin-1-yl)phenyl]butyl}carbamoyl)methyl]-1H-indol-3-yl}propanoic acid] | > 6.00 | 5.00 to 6.00 |
| Cc1ccc(C(NC(=O)Cc2ccc3[nH]cc(CCC(=O)O)c3c2)c2ccccc2N2CCCCC2)cc1 (stereo not drawn) [compound 188, 3-[5-({[(4-methylphenyl)[2-(piperidin-1-yl)phenyl]methyl]carbamoyl}methyl)-1H-indol-3-yl]propanoic acid] | > 6.00 | 4.52 to 5.00 |
